Earlier results on 4 compounds are cited in patent publication US10773080B2, “External trigeminal nerve stimulation for the acute non-invasive treatment of migraine attacks” (Cefaly Technology Sprl, priority 2017, dated 2020).

Series [1] concerns migraine. Particulars: literature data; for Pain freedom at 2 h: percentage of patients.
The test system of series [2] is migraine. Particulars: in vivo.

For `CN1CCC(C(=O)c2cccc(NC(=O)c3c(F)cc(F)cc3F)n2)CC1` [[B], Lasmiditan], in the series with migraine [1] (irrespective of MBS), the “Nausea freedom at 2 h” value is about 26%, the “Phonophobia freedom at 2 h” value is given as about 30%, the “Photophobia freedom at 2 h” value was about 38% and the “Vomiting freedom at 2 h” value was about 5%. Further, in the series with migraine [1], the “At least one treatment-emergent adverse effect” value is 84%; the “Pain relief at 2 h” value is 65%; the “Use of rescue medication between 2 h and 24 h” value is 42%; the “Pain freedom at 2 h” value is recorded as 28%.
For `O=C(O)Cc1ccccc1Nc1c(Cl)cccc1Cl` [diclofenac], in the series with migraine [2], the “Mean pain score reductions at two hours” value is listed as 50.5% and the “Reduction in mean pain VAS scores at one hour” value is recorded as 26.8%.
On to `CNS(=O)(=O)Cc1ccc2[nH]cc(CCN(C)C)c2c1` [sumatriptan], for which, in the series on migraine [2], the “Mean pain score reductions at two hours” value was 40.0% and the “Reduction in mean pain VAS scores at one hour” value is 17.1%.
For the compound `C[C@@H]1[C@H](c2ccccc2)C[C@H](NC(=O)c2cnc3c(c2)C[C@@]2(C3)C(=O)Nc3ncccc32)C(=O)N1CC(F)(F)F` [[F], Ubrogepant], in the series on migraine [1] (irrespective of MBS), the “Nausea freedom at 2 h” value is 70.6%, the “Phonophobia freedom at 2 h” value is 60.8% and the “Photophobia freedom at 2 h” value is reported as 54.9%. For the same compound, in the series with migraine [1], the “At least one treatment-emergent adverse effect” value is reported as 29.4%, the “Pain relief at 2 h” value was 58.8%, the “Sustained pain freedom at 24 h” value was 21.6% and the “Pain freedom at 2 h” value was 25.5%.
